Columns and labels:
OCI-AML-2 = experiment: Cell viability (MTS) assay, OCI-AML-2; format: cell-based; details: Homo sapiens, OCI-AML2; OCI-AML-2, MTS, 72 hours, mean ± standard deviation
Experimental: Human multiple myeloma cell lines 8226, H929, JJN3, KMH11, KMS11, KMS18, LP1, MM1S, OPM2 and U266 were grown in Iscove modified Dulbecco's medium (IMDM). Human leukemia cell lines K562, OCI-AML2 and U937 were cultured in RPMI-1640 medium. Primary peripheral blood mononuclear cells were isolated from multiple myeloma patients by Ficoll density gradient centrifugation and bone marrow aspirates were obtained from multiple myeloma patients at the Princess Margaret Cancer Centre of the University Health Network (UHN; Toronto, ON, Canada). Primary cells were cultured in IMDM. The collection and use of human tissue for this study was approved by the UHN institutional ethics review board. All cell culture media were obtained from the Ontario Cancer Institute Tissue Culture Media Facility (Toronto, ON, Canada) and were supplemented with 10% fetal calf serum, […] (Hyclone, Logan, Utah). All cells were grown in a humidified incubator at 37° C. with 5% CO2.
Cellular viability was primarily assessed by 3-(4,5-dimethylthiazol-2-yl)-5-(3-carboxymethoxyphenyl)-2-(4-sulfophenyl)-2H-tetrazolium (MTS) assay according to the manufacturer's instructions (Promega; Madison, Wis.). Cells were first seeded at a density of 10,000 cells per well in tissue culture-treated 96-well plates. Two hours after seeding, cells were treated with compounds for 72 hours at concentrations as indicated. As a control, cells were treated with DMSO alone in every assay plate. Following treatment and the MTS assay, cell viability was independently confirmed by reading the optical density (O.D.) at 490 nm and by exclusion of trypan blue stain (Invitrogen; Burlington, ON, Canada). The viability of primary mononuclear cells was determined by staining with Annexin V.
Table 8 summarizes the data of representative compounds of Formula I for cell viability and CT-L proteasome activity with OCI-AML-2 and KMS-11 cell lines.

K-562 = experiment: NCI screening panel, K-562 (Leukemia); format: cell-based, human
Experimental: (§1) Representative compounds of Formula I were screened using the National Cancer Institute (NCI) screening panel, which consists of a panel of human tumor cell lines, representing leukemia, melanoma, and cancers of the lung, colon, ovary, breast, prostate and renal system.
(§2) After 24 h, two plates of each cell line are fixed in situ with TCA, to represent a measurement of the cell population for each cell line at the time of drug addition (Tz). Experimental drugs are solubilised in dimethyl sulfoxide at 400-fold the desired final maximum test concentration and stored frozen prior to use. At the time of drug addition, an aliquot of frozen concentrate is thawed and diluted to twice the desired final maximum test concentration with complete medium containing 50 μg/mL gentamicin. Additional four, 10-fold or ½ log serial dilutions are made to provide a total of five drug concentrations plus control. Aliquots of 100 μl of these different drug dilutions are added to the appropriate microtiter wells already containing 100 μl of medium, resulting in the required final drug concentrations.
(§3) Following drug addition, the plates are incubated for an additional 48 h at 37° C., 5% CO2, 95% air, and 100% relative humidity. For adherent cells, the assay is terminated by the addition of cold TCA (trichloroacetic acid). Cells are fixed in situ by the gentle addition of 50 μl of cold 50% (w/v) TCA (final concentration, 10% TCA) and incubated for 60 minutes at 4° C. The supernatant is discarded, and the plates are washed five times with tap water and air dried. Sulforhodamine B (SRB) solution (100 μl) at 0.4% (w/v) in 1% acetic acid is added to each well, and plates are incubated for 10 minutes at room temperature. After staining, unbound dye is removed by washing five times with 1% acetic acid and the plates are air dried. Bound stain is subsequently solubilised with 10 mM trizma base, and the absorbance is read on an automated plate reader at a wavelength of 515 nm. For suspension cells, the methodology is the same except that the assay is terminated by fixing settled cells at the bottom of the wells by gently adding 50 μl of 80% TCA (final concentration, 16% TCA). Using the seven absorbance measurements [time zero, (Tz), control growth, (C), and test growth in the presence of drug at the five concentration levels (Ti)], the percentage growth is calculated at each of the drug concentrations levels. Percentage growth inhibition is calculated as: [(Ti−Tz)/(C−Tz)]×100 for concentrations for which Ti>/=Tz and [(Ti−Tz)/Tz]×100 for concentrations for which Ti<Tz.
(§4) Three dose response parameters are calculated for each experimental agent. Growth inhibition of 50% (GI50) is calculated from [(Ti−Tz)/(C−Tz)]×100=50, which is the drug concentration resulting in a 50% reduction in the net protein increase (as measured by SRB staining) in control cells during the drug incubation. The drug concentration resulting in total growth inhibition (TGI) is calculated from Ti=Tz. The LC50 (concentration of drug resulting in a 50% reduction in the measured protein at the end of the drug treatment as compared to that at the beginning) indicating a net loss of cells following treatment is calculated from [(Ti−Tz)/Tz]×100=−50. Values are calculated for each of these three parameters if the level of activity is reached. However, if the effect is not reached or is exceeded, the value for that parameter is expressed as greater or less than the maximum or minimum concentration tested.

HCT-116 = experiment: NCI screening panel, HCT-116 (Colon Cancer); format: cell-based, human
Experimental: as §1, §2, §3, §4

SF-268 = experiment: NCI screening panel, SF-268 (CNS Cancer); format: cell-based, human
Experimental: as §1, §2, §3, §4

MDA-MB-435 = experiment: NCI screening panel, MDA-MB-435 (Melanoma); format: cell-based, human
Experimental: as §1, §2, §3, §4

SK-MEL-28 = experiment: NCI screening panel, SK-MEL-28 (Melanoma); format: cell-based, human
Experimental: as §1, §2, §3, §4

IGROV1 = experiment: NCI screening panel, IGROV1 (Ovarian Cancer); format: cell-based, human
Experimental: as §1, §2, §3, §4

RXF 393 = experiment: NCI screening panel, RXF 393 (Renal Cancer); format: cell-based, human
Experimental: as §1, §2, §3, §4

SN12C = experiment: NCI screening panel, SN12C (Renal Cancer); format: cell-based, human
Experimental: as §1, §2, §3, §4

BT-549 = experiment: NCI screening panel, BT-549 (Breast Cancer); format: cell-based, human
Experimental: as §1, §2, §3, §4

| SMILES | IC50 (OCI-AML-2) [nM] | Log10GI50 (K-562) | Log10TGI50 (K-562) | Log10GI50 (HCT-116) | Log10LC50 (HCT-116) | Log10TGI50 (HCT-116) | Log10GI50 (SF-268) | Log10LC50 (SF-268) | Log10TGI50 (SF-268) | Log10GI50 (MDA-MB-435) | Log10LC50 (MDA-MB-435) | Log10TGI50 (MDA-MB-435) | Log10GI50 (SK-MEL-28) | Log10TGI50 (SK-MEL-28) | Log10GI50 (IGROV1) | Log10LC50 (IGROV1) | Log10TGI50 (IGROV1) | Log10GI50 (RXF 393) | Log10LC50 (RXF 393) | Log10TGI50 (RXF 393) | also measured |
| --- | --- | --- | --- | --- | --- | --- | --- | --- | --- | --- | --- | --- | --- | --- | --- | --- | --- | --- | --- | --- | --- |
| CC(C)C[C@H](NC(=O)[C@H](COC(F)F)NC(=O)[C@H](COC(F)F)NC(=O)[C@H](CCc1ccccc1)NC(=O)CN1CCOCC1)C(=O)[C@@]1(C)CO1 [Example 7, (2S)-N-[(1S)-1-(difluoromethoxymethyl)-2-[[(1S)-1-(difluoromethoxymethyl)-2-[[(1S)-3-methyl-1-[(2R)-2-methyloxirane-2-carbo-nyl]butyl]amino]-2-oxo-ethyl]amino]-2-oxo-ethyl]-2-[(2-morpholinoacetyl)amino]-4-phenyl-butanamide] | 61.1 ± 10.1 | −7.37 | >−4.00 | <−8.00 | >−4.00 | −6.78 | −7.73 | >−4.00 | −7.21 | −7.83 | −7.12 | −7.47 | −7.44 | >−4.00 | −7.49 | >−4.00 | −5.55 | −6.93 | −6.22 | −6.57 | Log10LC50 (K-562): >−4.00; Log10GI50 (SN12C): −7.46; Log10LC50 (SN12C): −5.85; Log10TGI50 (SN12C): −6.77; Log10GI50 (BT-549): −7.68; Log10LC50 (BT-549): >−4.00; Log10TGI50 (BT-549): −7.07 |
| CC(C)C[C@H](NC(=O)[C@H](Cc1ccccc1)NC(=O)[C@H](COC(F)F)NC(=O)[C@H](COC(F)F)NC(=O)CN1CCOCC1)C(=O)[C@@]1(C)CO1 [Example 11, (2S)-2-[[(2S)-3-(difluoromethoxy)-2-[[(2S)-3-(difluoromethoxy)-2-[(2-morpholinoacetyl)-amino]propanoyl]amino]propanoyl]amino]-N-[(1S)-3-methyl-1-[(2R)-2-methyloxirane-2-carbonyl]butyl]-3-phenyl-propanamide] | 15.7 ± 3.56 | −7.36 | >−4.00 | <−8.00 | −4.54 | −7.06 | −7.66 | −4.07 | −7.22 | −7.90 | −7.24 | −7.57 | −7.20 | −5.55 | −7.38 | >−4.00 | −4.36 | −6.98 | −6.23 | −6.60 | Log10LC50 (K-562): >−4.00; Log10LC50 (SK-MEL-28): >−4.00; Log10GI50 (SN12C): −7.20; Log10LC50 (SN12C): −5.39; Log10TGI50 (SN12C): −6.50; Log10GI50 (BT-549): −7.76; Log10LC50 (BT-549): >−4.00; Log10TGI50 (BT-549): −7.06 |
| CC(C)C[C@H](NC(=O)[C@H](COC(F)F)NC(=O)[C@H](COC(F)F)NC(=O)[C@H](COC(F)F)NC(=O)CN1CCOCC1)C(=O)[C@@]1(C)CO1 [Example 17, (2S)-3-(difluoromethoxy)-N-[(1S)-1-(difluoromethoxymethyl)-2-[[(1S)-1-(difluoro-methoxymethyl)-2-[[(1S)-3-methyl-1-[(2R)-2-methyloxirane-2-carbonyl]butyl]amino]-2-oxo-ethyl]amino]-2-oxo-ethyl]-2-[(2-mor-pholinoacetyl)amino]-propanamide] | 136 ± 36.8 | −6.77 | >−4.00 | −7.45 | −4.50 | −6.60 | −7.15 | −4.87 | −6.47 | −7.42 | −6.29 | −6.81 | −6.97 | −5.69 | −6.87 | >−4.00 | −5.82 | −6.48 | −5.41 | −5.94 | Log10LC50 (SK-MEL-28): >−4.00; Log10GI50 (SN12C): −6.71; Log10LC50 (SN12C): −5.06; Log10TGI50 (SN12C): −6.08; Log10GI50 (BT-549): −7.11; Log10LC50 (BT-549): >−4.00; Log10TGI50 (BT-549): −6.43 |
